{"source": "patent US8124609B2", "about": "“Acyclic nucleoside derivatives” (Medivir AB, priority 1996, dated 2012)", "type_in_all_cases": "in vivo", "key": {"[1]": {"experiment": "Bioavailability testing in rats (24 h urinary H2G recovery)", "conditions": "rat; for Bioavailability (Table 2): 0.1 mmol/kg per oral, 24 hour urinary H2G recovery as percentage of recovery after 0.1 mmol/kg i.v. H2G", "protocol": "The bioavailability of compounds of the invention were compared to the parent compound H2G and other H2G derivatives in a rat model. Compounds of the invention and comparative compounds were administered, per oral (by catheter into the stomach), to multiples of three individually weighed animals to give 0.1 mmol/kg of the dissolved prod rug in an aqueous (Example 4, 5, Comparative example 1-3, 5, 8), peanut oil (Comparative examples 4, 9, 10) or propylene glycol (Example 1-3, 6-12, 17, Comparative example 6, 7) vehicle dependent on the solubility of the test compound ingredient. The animals were fasted from 5 hours before to approximately 17 hours after administration and were maintained in metabolic cages. Urine was collected for the 24 hours following administration and frozen until analysis. H2G was analysed in the urine using the HPLC/UV assay of Stahle & Öberg, Antimicrob Agents Chemother. 36 No 2, 339-342 (1992), modified as follows: samples upon thawing are diluted 1:100 in aq dist H2O and filtered through an amicon filter with centrifugation at 3000 rpm for 10 minutes. Duplicate 30 μl samples are chromatographed on an HPLC column; Zorbax SB-C18; 75×4.6 mm; 3.5 micron; Mobile phase 0.05M NH4PO4, 3-4% methanol, pH 3.3-3.5; 0.5 ml/min; 254 nm, retention time for H2G at MeOH 4% and pH 3.33, ˜12.5 min. Bioavailability is calculated as the measured H2G recovery from each animal averaged over at least three animals and expressed as a percentage of the averaged 24 hour urinary H2G recovery from a group of 4 individually weighed rats respectively injected i.vjugularis with 0.1 mmol/kg H2G in a Ringer's buffer vehicle and analysed as above.\nComparative example 1 (H2G) was from the same batch as used for preparation of Examples 1 to 12. The preparation of Comparative example 2 (monoVal-H2G) and 3 (diVal-H2G) are shown in Examples 21 and 23. […] Comparative examples 5 & 8 (Val/Ac H2G) were prepared analogously to Example 4 using acetic anhydride with relevant monovaline H2G. […]"}, "[2]": {"experiment": "Plasma concentrations in rats (plasma drug assay, H2G AUC oral vs i.v.)", "conditions": "rat, 10 mg/kg oral dose in propylene glycol, plasma H2G AUC vs 10 mg/kg intravenous H2G", "protocol": "A plasma concentration assay was done in male Sprague Dawley derived rats. The animals were fasted overnight prior to dosing but were permitted free access to water. Each of the compounds evaluated was prepared as a solution/suspension in propylene glycol at a concentration corresponding to 10 mg H2G/ml and shaken at room temperature for eight hours. Groups of rats (at least 4 rats in each group) received a 10 mg/kg (1 ml/kg) oral dose of each of the compounds; the dose was administered by gavage. At selected time points after dosing (0.25, 0.5, 1, 1.5, 2, 4, 6, 9, 12, 15, and 24 hours after dosing), heparinized blood samples (0.4 ml/sample) were obtained from a tail vein of each animal. The blood samples were immediately chilled in an ice bath. Within two hours of collection, the plasma was separated from the red cells by centrifugation and frozen till analysis. The components of interest were separated from the plasma proteins using acetonitrile precipitation. Following lyophilisation, and reconstitution, the plasma concentrations were determined by reverse phase HPLC with fluorescence detection. The oral uptake of H2G and other test compounds was determined by comparison of the H2G area under the curve derived from the oral dose compared to that obtained from a 10 mg/kg intravenous dose of H2G, administered to a separate group of rats. The results are depicted in Table 1B above."}, "[3]": {"system": "Herpes simplex virus-1 (HSV-1)", "experiment": "Antiviral activity in HSV-1-infected mouse (survival)", "conditions": "21 and 83 mg/kg p.o. three times daily for 5 days, relative to equivalent dose of acyclovir", "protocol": "Herpes simplex virus-1 (HSV-1)-infected mouse serves as an animal model to determine the efficacy of antiviral agents in vivo. Mice inoculated intraperitoneally with HSV-1 at 1000 times the LD50 were administered either with a formulation comprising the currently marketed anti-herpes agent acyclovir (21 and 83 mg/kg in a 2% propylene glycol in sterile water vehicle, three times daily, p.o.) or the compound of Example 29 (21 and 83 mg/kg in a 2% propylene glycol in sterile water vehicle, three times daily, p.o.) for 5 consecutive days beginning 5 hours after inoculation. The animals were assessed daily for deaths. […] In the legend, the compound of the invention is denoted Ex. 29 and acyclovir is denoted ACV."}}}
{"smiles": "Nc1nc2c(ncn2CC(CO)CCO)c(=O)[nH]1", "note": "(centres unmarked) [Comparative example 1, 9-[4-hydroxy-(2-hydroxymethyl)butyl]guanine]", "values": [{"measurement": "Bioavailability (Table 2)", "setting": "[1]", "value": 8, "unit": "%"}, {"measurement": "Bioavailability (Table 1A)", "setting": "[1]; oral, urinary recovery assay of H2G, relative to i.v. H2G", "value": 8, "unit": "%"}, {"measurement": "Bioavailability (Table 1B)", "setting": "[2]", "value": 3.8, "unit": "%"}]}
{"smiles": "CC(=O)CCCC(=O)OC[C@H](CCOC(=O)[C@@H](N)C(C)C)Cn1cnc2c(=O)[nH]c(N)nc21", "note": "[Example 10]", "values": [{"measurement": "Bioavailability (Table 2)", "setting": "[1]", "value": 52, "unit": "%"}]}
{"smiles": "CCCCCCCCCCCCCCCCCC(=O)OC[C@H](CCOC(=O)[C@@H](N)C(C)C)Cn1cnc2c(=O)[nH]c(N)nc21.Cl", "note": "[Example 29]", "values": [{"measurement": "percentage of mice surviving the HSV-1 infection", "setting": "[3]", "value": "significantly greater"}]}
